{
  "source": "ChEMBL document CHEMBL1158892",
  "about": "“Cationic reduction of bastadin-4 to bastadin-5. Preparation of 5-[2h]-bastadin-5 by site-specific isotopic labeling” (J Nat Prod, 2003)",
  "biological_target": "Ryanodine receptor 1 (Homo sapiens) (UniProt P21817)",
  "sequence (P21817 whole entry)": "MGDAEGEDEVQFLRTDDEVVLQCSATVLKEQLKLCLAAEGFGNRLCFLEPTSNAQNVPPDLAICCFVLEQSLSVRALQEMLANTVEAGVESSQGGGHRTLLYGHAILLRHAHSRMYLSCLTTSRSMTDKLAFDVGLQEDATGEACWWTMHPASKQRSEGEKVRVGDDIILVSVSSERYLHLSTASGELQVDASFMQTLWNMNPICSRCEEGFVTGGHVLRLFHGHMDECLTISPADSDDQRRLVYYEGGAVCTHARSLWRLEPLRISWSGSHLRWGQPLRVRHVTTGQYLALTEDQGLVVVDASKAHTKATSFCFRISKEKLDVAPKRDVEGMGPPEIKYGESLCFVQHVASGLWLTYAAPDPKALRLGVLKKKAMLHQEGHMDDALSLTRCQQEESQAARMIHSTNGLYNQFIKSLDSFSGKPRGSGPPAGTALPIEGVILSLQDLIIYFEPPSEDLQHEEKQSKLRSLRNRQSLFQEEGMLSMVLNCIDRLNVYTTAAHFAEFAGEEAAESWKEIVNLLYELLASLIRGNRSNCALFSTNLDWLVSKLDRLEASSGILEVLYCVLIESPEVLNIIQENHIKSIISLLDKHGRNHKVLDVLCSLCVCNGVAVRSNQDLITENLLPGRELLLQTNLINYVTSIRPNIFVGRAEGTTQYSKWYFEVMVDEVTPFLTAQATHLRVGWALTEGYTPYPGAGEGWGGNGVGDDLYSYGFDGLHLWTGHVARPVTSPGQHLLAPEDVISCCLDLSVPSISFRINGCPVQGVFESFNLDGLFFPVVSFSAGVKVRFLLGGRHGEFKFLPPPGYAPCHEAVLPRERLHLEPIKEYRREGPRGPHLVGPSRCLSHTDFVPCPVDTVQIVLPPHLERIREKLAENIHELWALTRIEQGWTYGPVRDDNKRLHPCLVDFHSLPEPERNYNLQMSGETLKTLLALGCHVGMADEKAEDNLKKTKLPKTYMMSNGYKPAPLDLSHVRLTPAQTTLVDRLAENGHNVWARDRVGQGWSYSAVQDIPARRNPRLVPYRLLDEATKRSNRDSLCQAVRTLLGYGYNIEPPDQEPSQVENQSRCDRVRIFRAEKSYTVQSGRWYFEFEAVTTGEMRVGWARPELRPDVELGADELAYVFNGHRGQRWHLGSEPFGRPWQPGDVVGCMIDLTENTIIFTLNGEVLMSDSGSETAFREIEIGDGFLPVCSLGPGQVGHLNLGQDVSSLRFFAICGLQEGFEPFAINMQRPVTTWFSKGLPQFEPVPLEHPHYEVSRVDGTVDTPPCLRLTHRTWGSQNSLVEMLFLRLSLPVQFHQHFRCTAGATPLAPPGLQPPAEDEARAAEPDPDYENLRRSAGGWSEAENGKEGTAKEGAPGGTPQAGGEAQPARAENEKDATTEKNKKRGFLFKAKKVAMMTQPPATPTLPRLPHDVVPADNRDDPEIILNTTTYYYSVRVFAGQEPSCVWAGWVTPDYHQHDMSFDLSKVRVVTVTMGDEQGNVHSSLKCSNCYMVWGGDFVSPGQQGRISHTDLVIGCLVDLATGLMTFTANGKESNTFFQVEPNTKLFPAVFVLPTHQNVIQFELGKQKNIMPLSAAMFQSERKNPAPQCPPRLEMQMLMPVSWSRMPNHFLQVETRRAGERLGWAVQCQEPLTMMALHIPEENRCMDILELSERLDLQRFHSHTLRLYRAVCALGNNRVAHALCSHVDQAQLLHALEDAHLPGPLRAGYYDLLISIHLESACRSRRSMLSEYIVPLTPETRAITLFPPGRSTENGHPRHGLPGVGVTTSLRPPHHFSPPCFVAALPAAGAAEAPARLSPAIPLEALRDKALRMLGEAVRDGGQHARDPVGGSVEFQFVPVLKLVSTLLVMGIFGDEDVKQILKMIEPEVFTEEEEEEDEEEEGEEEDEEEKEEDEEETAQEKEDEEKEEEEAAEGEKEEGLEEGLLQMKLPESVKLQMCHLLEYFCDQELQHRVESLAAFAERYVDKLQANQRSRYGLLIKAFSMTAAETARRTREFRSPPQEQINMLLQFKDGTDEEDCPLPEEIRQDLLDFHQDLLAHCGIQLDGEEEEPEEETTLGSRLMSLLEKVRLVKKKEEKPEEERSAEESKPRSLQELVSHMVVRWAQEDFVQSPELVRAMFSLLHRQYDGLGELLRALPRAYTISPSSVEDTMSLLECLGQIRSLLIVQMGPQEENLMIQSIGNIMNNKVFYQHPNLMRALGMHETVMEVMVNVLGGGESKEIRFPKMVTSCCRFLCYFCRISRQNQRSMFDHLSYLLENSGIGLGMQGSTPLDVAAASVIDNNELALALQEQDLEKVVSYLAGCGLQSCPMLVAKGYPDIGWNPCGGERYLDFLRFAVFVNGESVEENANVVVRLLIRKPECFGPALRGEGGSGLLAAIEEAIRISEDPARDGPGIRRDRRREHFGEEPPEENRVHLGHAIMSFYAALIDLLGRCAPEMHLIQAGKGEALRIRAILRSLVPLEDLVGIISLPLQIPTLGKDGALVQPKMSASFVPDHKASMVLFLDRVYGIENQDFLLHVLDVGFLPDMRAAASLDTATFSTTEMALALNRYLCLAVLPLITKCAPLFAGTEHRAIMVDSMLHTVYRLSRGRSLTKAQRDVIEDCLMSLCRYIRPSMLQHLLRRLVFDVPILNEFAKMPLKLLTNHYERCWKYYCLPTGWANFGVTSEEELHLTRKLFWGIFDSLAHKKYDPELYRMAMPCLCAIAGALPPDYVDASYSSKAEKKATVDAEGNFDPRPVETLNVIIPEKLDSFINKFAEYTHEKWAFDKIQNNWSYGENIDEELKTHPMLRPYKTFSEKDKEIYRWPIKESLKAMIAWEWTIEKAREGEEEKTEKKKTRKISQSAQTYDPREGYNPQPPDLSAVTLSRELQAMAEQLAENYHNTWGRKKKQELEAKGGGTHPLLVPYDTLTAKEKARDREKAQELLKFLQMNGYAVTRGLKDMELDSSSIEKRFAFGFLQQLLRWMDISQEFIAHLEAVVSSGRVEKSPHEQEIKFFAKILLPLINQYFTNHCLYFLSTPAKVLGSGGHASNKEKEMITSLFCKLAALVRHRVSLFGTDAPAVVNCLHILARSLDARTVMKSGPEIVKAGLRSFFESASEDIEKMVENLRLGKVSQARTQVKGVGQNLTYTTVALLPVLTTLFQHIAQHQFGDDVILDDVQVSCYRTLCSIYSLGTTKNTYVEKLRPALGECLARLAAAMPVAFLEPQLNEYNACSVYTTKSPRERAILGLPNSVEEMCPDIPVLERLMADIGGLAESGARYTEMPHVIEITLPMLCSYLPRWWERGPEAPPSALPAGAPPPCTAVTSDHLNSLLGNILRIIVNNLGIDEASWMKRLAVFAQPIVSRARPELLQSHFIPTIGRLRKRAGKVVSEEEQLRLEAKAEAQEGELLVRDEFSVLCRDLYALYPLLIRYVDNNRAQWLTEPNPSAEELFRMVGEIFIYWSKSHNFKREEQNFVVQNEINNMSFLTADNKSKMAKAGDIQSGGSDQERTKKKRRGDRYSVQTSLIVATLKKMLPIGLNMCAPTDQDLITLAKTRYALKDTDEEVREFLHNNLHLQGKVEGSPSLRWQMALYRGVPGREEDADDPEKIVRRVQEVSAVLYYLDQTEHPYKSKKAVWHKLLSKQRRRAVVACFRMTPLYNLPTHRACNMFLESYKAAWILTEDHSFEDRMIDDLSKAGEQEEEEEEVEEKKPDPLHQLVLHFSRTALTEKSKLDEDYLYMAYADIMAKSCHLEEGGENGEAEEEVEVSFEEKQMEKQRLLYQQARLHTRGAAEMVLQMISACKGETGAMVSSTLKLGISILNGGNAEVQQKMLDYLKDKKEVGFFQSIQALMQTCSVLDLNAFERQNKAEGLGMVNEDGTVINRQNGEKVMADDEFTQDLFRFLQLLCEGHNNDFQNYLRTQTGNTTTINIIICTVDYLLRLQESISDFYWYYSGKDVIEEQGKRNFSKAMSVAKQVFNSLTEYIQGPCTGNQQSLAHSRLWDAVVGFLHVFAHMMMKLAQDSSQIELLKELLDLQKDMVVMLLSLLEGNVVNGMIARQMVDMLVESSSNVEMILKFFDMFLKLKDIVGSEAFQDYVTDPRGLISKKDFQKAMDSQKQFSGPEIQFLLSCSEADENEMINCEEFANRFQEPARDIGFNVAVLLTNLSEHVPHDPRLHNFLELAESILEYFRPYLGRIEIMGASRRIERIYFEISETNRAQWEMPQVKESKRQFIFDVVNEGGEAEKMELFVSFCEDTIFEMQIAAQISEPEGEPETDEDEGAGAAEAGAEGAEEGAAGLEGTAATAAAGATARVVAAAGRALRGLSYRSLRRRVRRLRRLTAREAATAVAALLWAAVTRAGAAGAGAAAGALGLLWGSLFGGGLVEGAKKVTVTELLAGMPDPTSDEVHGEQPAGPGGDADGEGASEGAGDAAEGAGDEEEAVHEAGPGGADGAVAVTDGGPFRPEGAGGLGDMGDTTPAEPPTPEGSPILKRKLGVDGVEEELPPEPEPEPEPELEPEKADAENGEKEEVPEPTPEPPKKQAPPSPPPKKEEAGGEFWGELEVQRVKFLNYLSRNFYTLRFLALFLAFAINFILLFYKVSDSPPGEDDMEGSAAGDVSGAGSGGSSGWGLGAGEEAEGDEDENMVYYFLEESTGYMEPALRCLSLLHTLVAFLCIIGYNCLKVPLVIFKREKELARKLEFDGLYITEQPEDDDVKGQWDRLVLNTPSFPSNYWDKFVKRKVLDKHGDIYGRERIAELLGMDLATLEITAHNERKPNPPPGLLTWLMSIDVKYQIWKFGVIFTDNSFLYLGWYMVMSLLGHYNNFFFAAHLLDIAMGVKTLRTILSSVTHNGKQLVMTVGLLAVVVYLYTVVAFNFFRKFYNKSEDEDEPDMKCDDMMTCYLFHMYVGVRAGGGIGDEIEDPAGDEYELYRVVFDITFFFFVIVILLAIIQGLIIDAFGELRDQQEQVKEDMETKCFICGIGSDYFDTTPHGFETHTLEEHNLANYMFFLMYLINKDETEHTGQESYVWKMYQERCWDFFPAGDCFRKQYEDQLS",
  "test": "Displacement of [3H]ryanodine from RyR1 calcium channel in sarcoplasmic reticulum assessed as calcium mobilization",
  "data": [
    {"compound": "O=C1NCCc2cc(Br)c(O)c(c2)Oc2ccc(cc2Br)CCNC(=O)/C(=N\\O)Cc2cc(Br)c(O)c(c2)Oc2c(Br)cc(cc2Br)C/C1=N/O", "values": [
      {"measurement": "ED50", "result": 2300, "unit": "nM"}
    ]}
  ]
}
